Laboratory results as given in ChEMBL document CHEMBL1201862, “PubChem BioAssay data set” (2004).
Active and inactive are the calls of the source.

Tests used:
[1] = target: T1, Polyadenylate-binding protein 1 (Homo sapiens, UniProt P11940); experiment: PABP1 MLLE–PAM2 interaction inhibitors, dose response, miRNA deadenylation inhibitor project, biochemical, fluorescence polarization, Cy5-PAM2 peptide, secondary (AID 602260); type: functional; conditions: read-out: IC50_Mean
[2] = target: T1, Polyadenylate-binding protein 1; experiment: PABP1 MLLE–PAM2 binding inhibitor potency, dose response, biochemical, fluorescence polarization, FITC-PAM2 peptide (AID 602259); type: functional; conditions: read-out: IC50_Mean
[3] = P. falciparum Dd2 growth inhibitors, dose response, SYBR Green, cherry-picked samples (AID 1159567); type: functional, cell-based
[4] = target: T2, Ubiquitin-conjugating enzyme E2 N (Homo sapiens, UniProt P61088); type: functional;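 further: Dose-response confirmation in a TR-FRET assay detecting UBC13-driven polyubiquitin chain formation, inhibition measured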
T2 sequence (P61088 whole entry): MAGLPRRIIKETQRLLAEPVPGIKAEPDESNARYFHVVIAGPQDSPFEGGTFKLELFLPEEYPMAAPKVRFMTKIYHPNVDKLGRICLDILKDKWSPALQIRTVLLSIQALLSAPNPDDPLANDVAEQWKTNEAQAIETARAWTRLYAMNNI

[5] = NIH-3T3 fibroblast cytotoxicity, dose response, cytotoxicity control, cell-based, fluorescence, Alamar Blue, secondary assay (AID 2327); type: functional;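 further: NIH-3T3 mouse fibroblasts cultured with fluconazole at 8 µg/mL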
[6] = C. albicans growth with fluconazole, confirmation, fluorescence, retest (AID 2467); type: functional, cell-based
[7] = tested on: Streptococcus sp. 'group A'; experiment: growth inhibition of control SK(-) GAS strain, dose response, counter-screen for streptokinase expression inhibitor project, luminescence, kanamycin, BacTiterGlo, confirmation (AID 1900); type: functional, organism-based
Streptokinase A = target: T3, Streptokinase A (Streptococcus pyogenes serotype M1, UniProt P10520); experiment: S. pyogenes streptokinase expression inhibitors, potency, dose response, plasminogen activation absorbance, OD405 (AID 1914); type: functional, Streptococcus pyogenes M1 GAS;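 further: secreted streptokinase activity via plasminogen activation per viability signal from cell pellet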
T3 sequence (P10520 whole entry): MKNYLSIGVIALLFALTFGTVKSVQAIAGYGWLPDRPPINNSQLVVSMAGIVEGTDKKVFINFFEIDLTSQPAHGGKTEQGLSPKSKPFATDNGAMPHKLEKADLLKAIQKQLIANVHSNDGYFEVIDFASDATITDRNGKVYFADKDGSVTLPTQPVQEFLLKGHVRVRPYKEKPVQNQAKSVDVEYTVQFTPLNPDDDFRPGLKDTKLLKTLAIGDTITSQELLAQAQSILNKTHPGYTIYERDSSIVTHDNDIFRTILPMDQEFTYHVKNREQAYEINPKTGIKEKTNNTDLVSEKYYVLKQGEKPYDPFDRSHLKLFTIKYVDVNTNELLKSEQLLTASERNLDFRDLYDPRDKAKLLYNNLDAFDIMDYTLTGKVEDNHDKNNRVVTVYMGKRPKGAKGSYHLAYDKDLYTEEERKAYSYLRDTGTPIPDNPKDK

Streptococcus = experiment: Group A Streptococcus viability loss, dose response, counter-screen for streptokinase expression inhibitor project, luminescence, BacTiterGlo (AID 1915); type: functional, organism-based;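 further: potency for reduction of bacterial viability or growth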
[8] = target: T4, Short transient receptor potential channel 4 (Mus musculus, UniProt Q9QUQ5); experiment: mouse TRPC4 channel inhibitors, dose response, cell-based, HEK293 TRPC4/mu-opioid, Fluo-4 calcium (AID 434942); type: functional;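 further: potency of inhibitors blocking the TRPC4 calcium response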
T4 sequence (Q9QUQ5 whole entry): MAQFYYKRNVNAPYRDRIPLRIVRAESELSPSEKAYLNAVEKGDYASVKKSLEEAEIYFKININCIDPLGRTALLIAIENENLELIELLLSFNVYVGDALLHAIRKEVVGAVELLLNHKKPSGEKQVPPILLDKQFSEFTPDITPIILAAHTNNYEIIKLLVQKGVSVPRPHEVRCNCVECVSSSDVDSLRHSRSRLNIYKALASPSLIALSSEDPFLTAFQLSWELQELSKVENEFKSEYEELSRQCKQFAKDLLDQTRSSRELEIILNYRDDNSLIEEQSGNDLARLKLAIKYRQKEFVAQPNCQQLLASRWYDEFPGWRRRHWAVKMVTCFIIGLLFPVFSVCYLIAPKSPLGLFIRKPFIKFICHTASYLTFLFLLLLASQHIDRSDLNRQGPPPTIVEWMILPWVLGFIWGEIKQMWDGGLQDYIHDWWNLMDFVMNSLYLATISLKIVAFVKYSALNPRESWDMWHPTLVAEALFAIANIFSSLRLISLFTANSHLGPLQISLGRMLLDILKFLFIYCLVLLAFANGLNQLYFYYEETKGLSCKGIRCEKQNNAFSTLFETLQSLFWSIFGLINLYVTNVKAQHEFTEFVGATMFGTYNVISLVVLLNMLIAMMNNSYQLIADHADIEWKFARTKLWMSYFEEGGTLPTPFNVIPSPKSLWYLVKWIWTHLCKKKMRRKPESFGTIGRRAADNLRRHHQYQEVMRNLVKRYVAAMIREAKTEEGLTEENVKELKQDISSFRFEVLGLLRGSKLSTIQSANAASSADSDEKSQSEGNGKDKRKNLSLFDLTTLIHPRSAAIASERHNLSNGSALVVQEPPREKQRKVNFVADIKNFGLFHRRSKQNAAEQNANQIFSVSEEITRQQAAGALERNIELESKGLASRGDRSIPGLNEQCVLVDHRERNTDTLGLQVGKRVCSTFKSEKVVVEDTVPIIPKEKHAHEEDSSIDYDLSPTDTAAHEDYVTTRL

[9] = inhibitors of intracellular T. cruzi replication, confirmation, NIH3T3 host cells, beta-gal luminescence (AID 2044); type: functional, cell-based;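 further: intracellular parasites grown in NIH/3T3 mouse fibroblasts as host cells; luminescent beta-galactosidase reporter signal from transgenic T. cruzi replicating inside host cells; inhibitors lower the luminescence signal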
[10] = cytotoxicity toward NIH3T3 fibroblasts, dose response, counter-screen, cell-based, ATP luminescence, mouse fibroblasts (AID 2010); type: functional;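 further: cells exposed to compound for about 90 hours before reading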
[11] = Luminescence Cell-Based Dose Retest to Confirm Inhibitors of Cancer Stem Cells. [Related pubchem assays (depositor defined):AID2717, AID2721]; type: functional; conditions: Homo sapiens
[12] = target: T5, Rac GTPase-activating protein 1 (Homo sapiens, UniProt Q9H0H5); experiment: MgcRacGAP GTPase-activating activity inhibitors, confirmation, biochemical, ADP Hunter fluorescence, primary and confirmatory (AID 624330); type: functional
T5 sequence (Q9H0H5 whole entry): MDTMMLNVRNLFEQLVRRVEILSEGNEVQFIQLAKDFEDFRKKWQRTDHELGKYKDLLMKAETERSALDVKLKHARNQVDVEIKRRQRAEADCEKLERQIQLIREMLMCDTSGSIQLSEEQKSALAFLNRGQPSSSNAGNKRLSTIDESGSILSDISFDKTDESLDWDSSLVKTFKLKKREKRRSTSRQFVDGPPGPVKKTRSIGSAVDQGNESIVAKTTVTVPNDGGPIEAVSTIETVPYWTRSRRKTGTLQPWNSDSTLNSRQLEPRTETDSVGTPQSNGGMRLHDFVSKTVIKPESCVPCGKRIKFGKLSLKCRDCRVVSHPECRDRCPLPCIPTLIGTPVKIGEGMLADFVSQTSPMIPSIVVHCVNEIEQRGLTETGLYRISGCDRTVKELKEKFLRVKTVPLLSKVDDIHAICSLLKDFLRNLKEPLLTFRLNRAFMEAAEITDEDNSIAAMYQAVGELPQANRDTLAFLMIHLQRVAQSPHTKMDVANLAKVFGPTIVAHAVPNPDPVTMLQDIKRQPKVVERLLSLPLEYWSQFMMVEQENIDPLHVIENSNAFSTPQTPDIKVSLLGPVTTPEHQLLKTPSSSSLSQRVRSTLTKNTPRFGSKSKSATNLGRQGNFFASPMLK

Nonstructural protein 1 = Nonstructural protein 1 (Influenza A virus, UniProt Q194T2); type: functional, Influenza A virus (A/California/07/2009(H1N1))
[13] = Shn3 3'UTR reporter inhibitors, dose response, cell-based, Clone20 osteoblasts, firefly luciferase, cherry-picked (AID 624132); type: functional;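 further: firefly luciferase luminescence from reporter carrying the Shn3 3'UTR in osteoblasts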
[14] = HepG2 cell cytotoxicity, dose response, cytotoxicity control for Shn3 inhibitor project, CellTiter-Glo, cherry-picked (AID 624134); type: functional, cell-based
[15] = control 3'UTR Renilla luciferase suppression, dose response, counter-screen for Shn3 inhibitor project, cell-based, Clone20-Shn3RL, cherry-picked (AID 624133); type: functional

T1 sequence (P11940 whole entry): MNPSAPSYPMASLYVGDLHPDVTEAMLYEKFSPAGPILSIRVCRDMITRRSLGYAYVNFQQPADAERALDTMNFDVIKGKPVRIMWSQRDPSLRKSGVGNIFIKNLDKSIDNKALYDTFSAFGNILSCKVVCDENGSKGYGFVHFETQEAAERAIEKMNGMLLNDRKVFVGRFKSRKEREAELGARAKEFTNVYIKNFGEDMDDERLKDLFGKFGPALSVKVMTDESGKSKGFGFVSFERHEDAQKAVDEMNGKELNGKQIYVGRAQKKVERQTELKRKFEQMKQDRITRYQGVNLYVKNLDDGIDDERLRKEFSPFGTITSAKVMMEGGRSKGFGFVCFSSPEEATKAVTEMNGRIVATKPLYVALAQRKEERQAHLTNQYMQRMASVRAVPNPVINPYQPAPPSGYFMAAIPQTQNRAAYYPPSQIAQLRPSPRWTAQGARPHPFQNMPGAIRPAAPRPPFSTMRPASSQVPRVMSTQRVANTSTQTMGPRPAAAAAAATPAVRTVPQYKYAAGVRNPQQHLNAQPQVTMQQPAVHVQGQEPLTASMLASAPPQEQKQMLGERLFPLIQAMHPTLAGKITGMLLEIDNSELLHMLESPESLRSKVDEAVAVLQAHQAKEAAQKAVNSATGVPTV
Chain of Nonstructural protein 1 (Q194T2 whole entry): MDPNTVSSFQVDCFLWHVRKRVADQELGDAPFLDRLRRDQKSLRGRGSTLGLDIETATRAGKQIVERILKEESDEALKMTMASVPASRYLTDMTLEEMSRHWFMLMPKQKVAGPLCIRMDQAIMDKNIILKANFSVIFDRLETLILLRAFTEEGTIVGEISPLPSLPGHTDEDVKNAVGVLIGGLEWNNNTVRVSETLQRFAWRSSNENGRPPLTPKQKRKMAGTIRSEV

SMILES: O=C(NC(=S)N1CCCC1)c1ccccc1F
- IC50 [1]: > 66 µM (inactive)
- IC50 [2]: > 66 µM (inactive)

SMILES: CCC(=O)N1CC2(C1)CN(Cc1cc(F)ccc1F)[C@H](CO)c1[nH]c3cc(OC)ccc3c12
- AC50 [3]: 5.73 µM (active)

SMILES: COCCN=C(S)N(CCO)Cc1cc2cc3c(cc2nc1O)OCCO3
- IC50 [1]: > 66 µM (inactive)
- IC50 [2]: > 66 µM (inactive)

SMILES: COc1ccc(Cl)cc1/C=N/NC(=O)c1c(-c2ccccc2)noc1C
- IC50 [4]: > 20 µM (inactive)

SMILES: COc1ccc(NC(=O)CNC(=O)c2nn(-c3ccc(OC)cc3OC)c(=O)c3ccccc23)c(OC)c1
- EC50 [5]: 132 µM (active)
- EC50 [6]: 1.55 µM (active)

SMILES: CCC(=O)NC(=S)NNC(=O)c1ccc([N+](=O)[O-])cc1
- IC50 [4]: > 20 µM (inactive)

SMILES: O=C(C1CCC1)N1CC(=O)N2[C@H](CO)[C@@H](c3ccc(C#CCc4ccccc4)cc3)[C@@H]2C1
- AC50 [3]: 4.27 µM (active)

SMILES: CCn1c(NC(=O)c2cccs2)nc2ccccc21
- EC50 [5]: 48.8 µM (active)
- EC50 [6]: 1.43 µM (active)

SMILES: N#C/C(=N\Nc1ccc(S(=O)(=O)N2CCCCCC2)cc1)C(N)=S
- EC50 [7]: 22.7 µM (active)
- EC50 (Streptokinase A): > 150 µM (not active)
- EC50 (Streptococcus): > 150 µM (not active)
- IC50 [1]: > 66 µM (inactive)
- IC50 [2]: > 66 µM (inactive)

SMILES: CCOC(=O)C1CCN(C(=O)COC(=O)CSc2ccc([N+](=O)[O-])cc2)CC1
- IC50 [1]: > 66 µM (inactive)
- IC50 [2]: > 66 µM (inactive)

SMILES: CC(C)n1c(NCc2c[nH]c3ccccc23)nc2ccccc21
- EC50 [8]: 1.68 µM (active)

SMILES: Cc1cc(/C=N/NC(N)=S)c(C)n1-c1cccc(Cl)c1
- EC50 [5]: > 150 µM (inconclusive)
- EC50 [6]: 3.69 µM (active)
- EC50 [9]: 0.984 µM (active)
- EC50 [10]: > 60 µM (not active)

SMILES: CN(C)C(=O)c1cccc(-c2ccc3c(c2)[C@H]2[C@H](CCN2C(=O)C2CC2)[C@@H](CO)N3)c1
- AC50 [3]: 17.5 µM (active)

SMILES: CCOc1ccc(CN2CCN(C(=O)c3ccccc3)CC2)cc1
- EC50 [8]: 6.68 µM (active)

SMILES: CC1=C(C(N)=O)C(c2ccc(C)o2)C(C(N)=O)=C(C)N1
- EC50 [5]: > 160 µM (inactive)
- EC50 [6]: > 38 µM (not active)

SMILES: CCC(=O)N1CC2(CCN(Cc3ccc(Cl)cc3)CC2)c2c(n(C)c3cc(OC)ccc23)[C@@H]1CO
- AC50 [3]: 7.31 µM (active)

SMILES: Cn1nnc(NC(=S)NC(=O)c2cccc3c(Br)cccc23)n1
- IC50 [1]: > 66 µM (inactive)
- IC50 [2]: > 66 µM (inactive)

SMILES: O=C(CCS(=O)(=O)c1ccccc1)Nc1nc2cc3c(cc2s1)OCCO3
- EC50 [5]: > 160 µM (inactive)
- EC50 [7]: 79.6 µM (active)
- EC50 (Streptokinase A): > 150 µM (not active)
- EC50 [6]: 1.75 µM (active)
- EC50 (Streptococcus): > 150 µM (not active)

SMILES: CCC(SCC(=O)OC)C(=O)Nc1nnc(C(C)C)s1 (stereo unspecified)
- IC50 [1]: > 66 µM (inactive)
- IC50 [2]: > 66 µM (inactive)

SMILES: CCOc1ccc(NC(=S)NC(=O)c2c(Cl)c(C)nn2C)c([N+](=O)[O-])c1
- IC50 [1]: > 66 µM (inactive)
- IC50 [2]: > 66 µM (inactive)

SMILES: O=C(Cc1ccc(F)cc1)N1CCN=C1SCc1ccc([N+](=O)[O-])cc1
- IC50 [1]: > 66 µM (inactive)
- IC50 [2]: > 66 µM (inactive)

SMILES: CC1CN(C(S)=Nc2cccc([N+](=O)[O-])c2)CC(C)O1 (stereo unspecified)
- EC50 [5]: > 160 µM (inactive)
- EC50 [6]: > 38 µM (not active)

SMILES: OC(COc1ccccc1)CN1C2=NCCCN2c2ccccc21 (stereo unspecified)
- EC50 [8]: 13.3 µM (active)

SMILES: Cc1ccc2cc(CN(CCN3CCOCC3)C(=O)NCc3ccccc3)c(O)nc2c1C
- EC50 [8]: 4.22 µM (active)

SMILES: CO[C@@H]1CN(C)C(=O)c2cc(NC(=O)C3CC3)ccc2OC[C@H](C)N(CC2CCCC2)C[C@H]1C
- AC50 [3]: 4.45 µM (active)

SMILES: COc1cc2ccccc2cc1C(=O)NC(=S)Nc1cccc(C(=O)O)c1
- IC50 [1]: > 66 µM (inactive)
- IC50 [2]: > 66 µM (inactive)

SMILES: CC(C)(C)[S@@+]([O-])N1Cc2cc(C(=O)NC3CCC3)nc(-c3cccc(Br)c3)c2[C@H]1CCO
- AC50 [3]: 5.58 µM (active)

SMILES: O=C(NCCCN1CCOCC1)c1ccc(NC(=O)C2COc3ccccc3O2)cc1 (stereo unspecified)
- EC50 [8]: 15 µM (active)

SMILES: Nc1c(C(=O)Nc2ccccc2)c2nc3ccccc3nc2n1CCCN1CCOCC1
- AC50 [11]: 5.96 µM (active)
- IC50 [4]: > 20 µM (inactive)

SMILES: CC(C)C1=Nc2cccc3cccc(c23)N1
- EC50 [8]: 2.37 µM (active)
- IC50 [12]: 26.3 µM (active)

SMILES: Oc1cc(-c2ccncc2)cc2cccnc12
- IC50 (Nonstructural protein 1): 11.9 µM (active)
- AC50 [13]: 5.4 µM (active)
- AC50 [14]: 10.9 µM (active)
- AC50 [15]: 3.51 µM (active)

SMILES: O=C(CCc1ccccc1)NNC(=O)c1ccccn1
- IC50 [4]: > 20 µM (inactive)

SMILES: Cc1cccc(N(Cc2ccccc2)C(=O)CSC(C)C(=O)Nc2cc(C)on2)c1 (stereo unspecified)
- EC50 [8]: 2.11 µM (active)
